In paper PMC9090415, “Discovery of small molecule inhibitors of Plasmodium falciparum apicoplast DNA polymerase” (Journal of Enzyme Inhibition and Medicinal Chemistry, 2022):

Target: P. falciparum apicoplast DNA polymerase (Pf-apPOL) (Plasmodium falciparum, UniProt Q8ILY1)
Assay: Fluorescence-based high-throughput DNA polymerase assay (molecular beacon), primary screen and dose-response;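 as to % inhibition ApPOL 90': test concentration in µM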;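 as to % inhibition Apol 40': compound concentration given in µM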;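 as to % inhibition apPOL 180': test concentration in µM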
Format: biochemical
Conditions: for DNA Pol: 90 min, 10 µM
How it was run: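 Single-point screening used 10 µM compound with 20 nM polymerase, 20 nM hairpin substrate and 6 µM dNTPs for 90 min at 25 °C. Confirmatory titrations (2.5–80 µM) followed fluorescence at three times, and IC50 was derived from a fit including a cooperativity term n.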

[1] = first dose-response set, concentration 80
[2] = "DNA Pol" of the 186 hits list (screen value)

P. falciparum apicoplast DNA polymerase (Pf-apPOL), sequence (Q8ILY1 entry or part of it): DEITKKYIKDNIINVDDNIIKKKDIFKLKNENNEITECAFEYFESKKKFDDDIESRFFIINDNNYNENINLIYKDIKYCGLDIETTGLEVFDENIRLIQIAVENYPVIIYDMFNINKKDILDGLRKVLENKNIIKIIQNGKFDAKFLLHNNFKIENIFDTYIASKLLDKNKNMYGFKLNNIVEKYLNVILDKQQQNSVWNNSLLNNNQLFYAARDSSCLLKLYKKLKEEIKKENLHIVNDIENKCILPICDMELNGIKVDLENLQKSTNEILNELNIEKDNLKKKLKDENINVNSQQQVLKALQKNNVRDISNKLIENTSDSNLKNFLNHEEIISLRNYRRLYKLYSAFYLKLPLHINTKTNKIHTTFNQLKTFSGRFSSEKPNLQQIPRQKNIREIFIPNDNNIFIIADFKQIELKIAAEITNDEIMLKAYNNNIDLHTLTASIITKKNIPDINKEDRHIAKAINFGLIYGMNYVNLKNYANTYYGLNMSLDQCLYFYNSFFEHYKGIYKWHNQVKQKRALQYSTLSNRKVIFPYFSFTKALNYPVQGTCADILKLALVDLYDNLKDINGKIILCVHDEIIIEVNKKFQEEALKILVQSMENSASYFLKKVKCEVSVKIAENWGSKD

COc1ccc(-c2cc3nc4c(c(=O)n3[nH]2)CCN(C(=O)CCc2ccccc2)C4)cc1 [Molecule 17, COc1ccc(cc1)c1[nH]n2c(c1)nc1c(c2=O)CCN(C1)C(=O)CCc1ccccc1]
DNA Pol ('DNA Pol' of the 186 hits list (primary screen value)): 52
DNA Pol (DNA Pol (primary screen value)): 52
% inhibition Apo pol 10' (DRC-1, concentration 2.5): 3%
% inhibition Apo pol 10' (DRC-1, concentration 5): 30%
% inhibition Apo pol 10' (DRC-1, concentration 10): 64%
% inhibition Apo pol 10' (DRC-1, concentration 20): 81%
% inhibition Apo pol 10' (DRC-1, concentration 40): 82%
% inhibition Apo pol 10' (DRC-1, concentration 80): 78%
% inhibition Apol 90' (DRC-1, concentration 2.5): -3.33%
% inhibition Apol 90' (DRC-1, concentration 5): 18%
% inhibition Apol 90' (DRC-1, concentration 10): 49%
% inhibition Apol 90' (DRC-1, concentration 20): 69%
% inhibition Apol 90' (DRC-1, concentration 40): 72%
% inhibition Apol 90' (DRC-1, concentration 80): 78%
% inhibition apPOL 180' (DRC-1, concentration 2.5): -7%
% inhibition apPOL 180' (DRC-1, concentration 5): 7.5%
% inhibition apPOL 180' (DRC-1, concentration 10): 34%
% inhibition apPOL 180' (DRC-1, concentration 20): 55%
% inhibition apPOL 180' (DRC-1, concentration 40): 58%
% inhibition apPOL 180' (DRC-1, concentration 80): 70%
% inhibition Apo pol 5' (DRC-2, concentration 2.5): -5.33%
% inhibition Apo pol 5' (DRC-2, concentration 5): 12%
% inhibition Apo pol 5' (DRC-2, concentration 10): 31%
% inhibition Apo pol 5' (DRC-2, concentration 20): 43%
% inhibition Apo pol 5' (DRC-2, concentration 40): 44%
% inhibition Apo pol 5' (DRC-2, concentration 80): 38%
% inhibition Apol 40' (DRC-2, concentration 2.5): -5.29%
% inhibition Apol 40' (DRC-2, concentration 5): 14%
% inhibition Apol 40' (DRC-2, concentration 10): 35%
% inhibition Apol 40' (DRC-2, concentration 20): 54%
% inhibition Apol 40' (DRC-2, concentration 40): 57%
% inhibition Apol 40' (DRC-2, concentration 80): 58%
% inhibition ApPOL 90' (DRC-2, concentration 2.5): -4.53%
% inhibition ApPOL 90' (DRC-2, concentration 5): 13%
% inhibition ApPOL 90' (DRC-2, concentration 10): 33%
% inhibition ApPOL 90' (DRC-2, concentration 20): 53%
% inhibition ApPOL 90' (DRC-2, concentration 40): 57%
% inhibition ApPOL 90' (DRC-2, concentration 80): 61%
% inhibition apPOL 180' (DRC-2, concentration 2.5): -5%
% inhibition apPOL 180' (DRC-2, concentration 5): 6%
% inhibition apPOL 180' (DRC-2, concentration 10): 24%
% inhibition apPOL 180' (DRC-2, concentration 20): 44%
% inhibition apPOL 180' (DRC-2, concentration 40): 50%
% inhibition apPOL 180' (DRC-2, concentration 80): 58%
% inhibition Apo pol 10' [1]: 78%
% inhibition Apol 90' [1]: 78%
% inhibition apPOL 180' (first dose-response set, concentration 40): 58%

CC1(C)CC(=O)C2=C(C1)OC1=C(C(=O)CC(C)(C)C1)C2c1ccc(O)cc1 [KU0194226]
DNA Pol [2]: 31
% inhibition Apo pol 10' (DRC-1, concentration 2.5): 1.4755%
% inhibition Apo pol 10' (DRC-1, concentration 5): 6.619%
% inhibition Apo pol 10' (DRC-1, concentration 10): 20.9207%
% inhibition Apo pol 10' (DRC-1, concentration 20): 40.5777%
% inhibition Apo pol 10' (DRC-1, concentration 40): 75.7382%
% inhibition Apo pol 10' (DRC-1, concentration 80): 84.2344%
% inhibition Apol 90' (DRC-1, concentration 2.5): 3.436%
% inhibition Apol 90' (DRC-1, concentration 5): 6.7212%
% inhibition Apol 90' (DRC-1, concentration 10): 20.1854%
% inhibition Apol 90' (DRC-1, concentration 20): 38.6225%
% inhibition Apol 90' (DRC-1, concentration 40): 72.348%
% inhibition Apol 90' (DRC-1, concentration 80): 80.6214%
% inhibition apPOL 180' (DRC-1, concentration 2.5): 2.939%
% inhibition apPOL 180' (DRC-1, concentration 5): 5.25%
% inhibition apPOL 180' (DRC-1, concentration 10): 19.133%
% inhibition apPOL 180' (DRC-1, concentration 20): 35.7891%
% inhibition apPOL 180' (DRC-1, concentration 40): 67.9328%
% inhibition apPOL 180' (DRC-1, concentration 80): 76.0012%
% inhibition Apo pol 5' (DRC-2, concentration 2.5): 2.55%
% inhibition Apo pol 5' (DRC-2, concentration 5): 2.7%
% inhibition Apo pol 5' (DRC-2, concentration 10): 17%
% inhibition Apo pol 5' (DRC-2, concentration 20): 21%
% inhibition Apo pol 5' (DRC-2, concentration 40): 37%
% inhibition Apo pol 5' (DRC-2, concentration 80): 35%
% inhibition Apol 40' (DRC-2, concentration 2.5): 5.61%
% inhibition Apol 40' (DRC-2, concentration 5): -0.353%
% inhibition Apol 40' (DRC-2, concentration 10): 23%
% inhibition Apol 40' (DRC-2, concentration 20): 31%
% inhibition Apol 40' (DRC-2, concentration 40): 52%
% inhibition Apol 40' (DRC-2, concentration 80): 59%
% inhibition ApPOL 90' (DRC-2, concentration 2.5): 6%
% inhibition ApPOL 90' (DRC-2, concentration 5): -4.67%
% inhibition ApPOL 90' (DRC-2, concentration 10): 27%
% inhibition ApPOL 90' (DRC-2, concentration 20): 34%
% inhibition ApPOL 90' (DRC-2, concentration 40): 57%
% inhibition ApPOL 90' (DRC-2, concentration 80): 65%
% inhibition apPOL 180' (DRC-2, concentration 2.5): 5.45%
% inhibition apPOL 180' (DRC-2, concentration 5): -63%
% inhibition apPOL 180' (DRC-2, concentration 10): 27%
% inhibition apPOL 180' (DRC-2, concentration 20): 36%
% inhibition apPOL 180' (DRC-2, concentration 40): 61%
% inhibition apPOL 180' (DRC-2, concentration 80): 70%
DNA Pol (primary screen value, DNA Pol): 31

CN(C)S(=O)(=O)Oc1ccc(-c2noc(-c3ccc(Oc4cc(Cl)cc(Cl)c4)o3)n2)cc1 [KU0263859]
DNA Pol [2]: 81
% inhibition Apo pol 10' (DRC-1, concentration 2.5): 3.819%
% inhibition Apo pol 10' (DRC-1, concentration 5): 17.153%
% inhibition Apo pol 10' (DRC-1, concentration 10): 39.7031%
% inhibition Apo pol 10' (DRC-1, concentration 20): 66.3992%
% inhibition Apo pol 10' (DRC-1, concentration 40): 79.6706%
% inhibition Apo pol 10' (DRC-1, concentration 80): 81.4369%
% inhibition Apol 90' (DRC-1, concentration 2.5): 1.99%
% inhibition Apol 90' (DRC-1, concentration 5): 7.942%
% inhibition Apol 90' (DRC-1, concentration 10): 26.2984%
% inhibition Apol 90' (DRC-1, concentration 20): 55.9318%
% inhibition Apol 90' (DRC-1, concentration 40): 71.2326%
% inhibition Apol 90' (DRC-1, concentration 80): 82.3525%
% inhibition apPOL 180' (DRC-1, concentration 2.5): 0.6453%
% inhibition apPOL 180' (DRC-1, concentration 5): 1.378%
% inhibition apPOL 180' (DRC-1, concentration 10): 13.3092%
% inhibition apPOL 180' (DRC-1, concentration 20): 44.3234%
% inhibition apPOL 180' (DRC-1, concentration 40): 58.5688%
% inhibition apPOL 180' (DRC-1, concentration 80): 76.7438%
% inhibition Apo pol 5' (DRC-2, concentration 2.5): 2.6%
% inhibition Apo pol 5' (DRC-2, concentration 5): 18%
% inhibition Apo pol 5' (DRC-2, concentration 10): 34%
% inhibition Apo pol 5' (DRC-2, concentration 20): 47%
% inhibition Apo pol 5' (DRC-2, concentration 40): 47%
% inhibition Apo pol 5' (DRC-2, concentration 80): 46%
% inhibition Apol 40' (DRC-2, concentration 2.5): 3%
% inhibition Apol 40' (DRC-2, concentration 5): 16%
% inhibition Apol 40' (DRC-2, concentration 10): 36%
% inhibition Apol 40' (DRC-2, concentration 20): 57%
% inhibition Apol 40' (DRC-2, concentration 40): 65%
% inhibition Apol 40' (DRC-2, concentration 80): 68%
% inhibition ApPOL 90' (DRC-2, concentration 2.5): 0.164%
% inhibition ApPOL 90' (DRC-2, concentration 5): 12%
% inhibition ApPOL 90' (DRC-2, concentration 10): 32%
% inhibition ApPOL 90' (DRC-2, concentration 20): 56%
% inhibition ApPOL 90' (DRC-2, concentration 40): 67%
% inhibition ApPOL 90' (DRC-2, concentration 80): 73%
% inhibition apPOL 180' (DRC-2, concentration 2.5): -5.61%
% inhibition apPOL 180' (DRC-2, concentration 5): 5.64%
% inhibition apPOL 180' (DRC-2, concentration 10): 20%
% inhibition apPOL 180' (DRC-2, concentration 20): 47%
% inhibition apPOL 180' (DRC-2, concentration 40): 65%
% inhibition apPOL 180' (DRC-2, concentration 80): 76%
DNA Pol (primary screen value, DNA Pol): 81
